# Measured values reported in ChEMBL document CHEMBL5614418, “Discovery of novel dihydropyrrolidone-thiadiazole compound crosstalk between the YycG/F two-component regulatory pathway and cell membrane homeostasis to combat methicillin-resistant Staphylococcus aureus” (Eur J Med Chem, 2024).
# The source made the active and inactive calls. No cut-off for these calls is given here.
# How the values were obtained:
# [1] = system: Staphylococcus aureus; test: Antibacterial activity against methicillin resistant Staphylococcus aureus USA300 infected in BALB/c mouse pneumonia model assessed as increase in mouse survival rate at 20 mg/kg, ip administered every 12 hrs for 3 times and measured after 48 hrs; type: functional, organism-based
# [2] = system: Staphylococcus aureus; test: Antibacterial activity against methicillin sensitive Staphylococcus aureus SA113 by broth microdilution method; type: functional
# [3] = Cytotoxicity against human LX2 cells incubated for 24 hrs by CCK8 assay; type: toxicity, cell-based; conditions: LX-2 cells
# [4] = Hemolytic activity against human erythrocytes measured after 1 hr; type: toxicity, cell-based, Erythrocyte
# [5] = system: Staphylococcus epidermidis; test: Bactericidal activity against Staphylococcus epidermidis SE1457; type: functional
# [6] = system: Staphylococcus aureus; test: Bactericidal activity against Staphylococcus aureus SA113; type: functional
# [7] = system: Enterococcus faecalis; test: Bactericidal activity against Enterococcus faecalis OG1RF; type: functional
# [8] = system: Enterococcus faecium; test: Bactericidal activity against Enterococcus faecium EFM64; type: functional
# [9] = system: Klebsiella pneumoniae; test: Antibacterial activity against Klebsiella pneumoniae; type: functional, organism-based
# [10] = system: Escherichia coli; test: Antibacterial activity against Escherichia coli; type: functional, organism-based
# [11] = system: Staphylococcus aureus; test: Inhibition of bacterial growth in methicillin sensitive Staphylococcus aureus SA113 at MIC concentration measured upto 16 hrs; type: functional
# [12] = system: Staphylococcus epidermidis; test: Inhibition of bacterial growth in Staphylococcus epidermidis SE1457 at 1/2 MIC concentration measured upto 16 hrs; type: functional, organism-based
# [13] = system: Staphylococcus aureus; test: Inhibition of bacterial growth in methicillin sensitive Staphylococcus aureus SA113 at 1/2 MIC concentration measured upto 16 hrs; type: functional, organism-based
# [14] = system: Staphylococcus epidermidis; test: Synergistic antibacterial activity against Staphylococcus epidermidis SE1457 in presence of vancomycin; type: functional, organism-based
# [15] = system: Staphylococcus aureus; test: Synergistic antibacterial activity against methicillin resistant Staphylococcus aureus USA300 in presence of linezolid; type: functional, organism-based
# [16] = system: Staphylococcus aureus; test: Synergistic antibacterial activity against methicillin resistant Staphylococcus aureus USA300 assessed as fractional inhibitory concentration index in presence of daptomycin; type: functional
# [17] = system: Staphylococcus aureus; test: Synergistic bactericidal activity against Staphylococcus aureus USA300 assessed as planktonic cells killing by measuring log reduction in bacterial count at 8 times MIC measured after 24 hrs in presence of daptomycin; type: functional
# [18] = system: Staphylococcus epidermidis; test: Synergistic bactericidal activity against Staphylococcus epidermidis SE1457 assessed as persister cells killing by measuring log reduction in bacterial count at 8 times MIC measured after 72 hrs in presence of daptomycin; type: functional
# [19] = system: Staphylococcus aureus; test: Synergistic bactericidal activity against Staphylococcus aureus USA300 assessed as persister cells killing by measuring log reduction in bacterial count at 8 times MIC measured after 72 hrs in presence of daptomycin; type: functional
# [20] = system: Staphylococcus aureus; test: Antibacterial activity against methicillin resistant Staphylococcus aureus USA300 by broth microdilution method; type: functional
# [21] = system: Staphylococcus epidermidis; test: Inhibition of biofilm formation in Staphylococcus epidermidis SE1457 at 1/2 MIC incubated for 16 hrs by SEM analysis; type: functional, organism-based
# [22] = system: Staphylococcus aureus; test: Induction of matured biofilm eradication in methicillin resistant Staphylococcus aureus YUSA145 assessed as reduction in bacterial survival in biofilm at 8 times MIC incubated for 48 hrs by SYTO 9 staining based confocal fluorescence microscopic analysis; type: functional
# [23] = system: Staphylococcus aureus; test: Induction of matured biofilm eradication in methicillin resistant Staphylococcus aureus YUSA145 assessed as reduction in bacterial survival in biofilm at 8 times MIC incubated for 48 hrs in presence of daptomycin by SYTO 9 staining based confocal fluorescence microscopic analysis; type: functional
# [24] = system: Staphylococcus aureus; test: Induction of matured biofilm eradication in methicillin resistant Staphylococcus aureus YUSA145 assessed as log reduction in bacterial count in biofilm at 8 MIC incubated for 48 hrs in presence of daptomycin by agar plate method; type: functional
# [25] = system: Staphylococcus aureus; test: Downregulation of arcC1 expression level in methicillin sensitive Staphylococcus aureus SA113 at 1/2 MIC incubated for 2 hrs by MS/MS analysis; type: functional
# [26] = system: Staphylococcus aureus; test: Downregulation of pflB expression level in methicillin sensitive Staphylococcus aureus SA113 at 1/2 MIC incubated for 2 hrs by MS/MS analysis; type: functional
# [27] = system: Staphylococcus aureus; test: Downregulation of pflA gene expression level in methicillin sensitive Staphylococcus aureus SA113 at 1/2 MIC by RT-qPCR analysis; type: functional
# [28] = system: Staphylococcus aureus; test: Downregulation of pflB gene expression level in methicillin sensitive Staphylococcus aureus SA113 at 1/2 MIC by RT-qPCR analysis; type: functional
# [29] = system: Staphylococcus aureus; test: Antibacterial activity against methicillin sensitive Staphylococcus aureus SA113 assessed as fold increase in MIC in presence of cardiolipin by chequerboard microdilution assay; type: functional
# [30] = system: Staphylococcus aureus; test: Antibacterial activity against methicillin sensitive Staphylococcus aureus SA113 assessed as fold increase in MIC in presence of peptidoglycan by chequerboard microdilution assay; type: functional
# [31] = system: Staphylococcus aureus; test: Antibacterial activity against methicillin sensitive Staphylococcus aureus SA113 in presence of palmitic acid; type: functional, organism-based
# [32] = Binding affinity to biotin-labeled cardiolipin (unknown origin) by biolayer interferometry
# [33] = system: Staphylococcus aureus; test: Induction of resistance development in methicillin sensitive Staphylococcus aureus SA113 assessed as fold increase in MIC at 1/2 MIC incubated for 16 hrs after 20 serial passages; type: functional
# [34] = system: Staphylococcus aureus; test: Antibacterial activity against methicillin resistant Staphylococcus aureus USA300 infected in BALB/c mouse pneumonia model assessed as log reduction in lung bacterial count at 20 mg/kg, ip administered every 12 hrs for 3 times and measured after 48 hrs; type: functional
# [35] = system: Staphylococcus epidermidis; test: Antibacterial activity against methicillin resistant Staphylococcus epidermidis SE1457 infected in BALB/c mouse wound model assessed as log reduction in wound bacterial load at 20 mg/kg, ip administered every 12 hrs for 3 times and measured after 48 hrs; type: functional
# [36] = system: Staphylococcus aureus; test: Antibacterial activity against methicillin resistant Staphylococcus aureus […] infected in BALB/c mouse wound model assessed as log reduction in wound bacterial load at 20 mg/kg, ip administered every 12 hrs for 3 times and measured after 48 hrs in presence of DAP; type: functional
# [37] = Toxicity in BALB/c mouse assessed as change in BUN level at 50 mg/kg, ip measured after 1 to 3 days; type: organism-based; conditions: in vivo, time 1-3 day
# [38] = Toxicity in BALB/c mouse assessed as change in CREA level at 50 mg/kg, ip measured after 1 to 3 days; type: organism-based; conditions: in vivo, time 1-3 day
# [39] = Toxicity in BALB/c mouse assessed as apparent tissue damage at 50 mg/kg, ip measured after 1 to 3 days; type: organism-based; conditions: in vivo, time 1-3 day
# [40] = system: Staphylococcus aureus; test: Antibacterial activity against methicillin resistant Staphylococcus aureus YUSA145; type: functional
smiles,measurement,setting,value
O=C(C1=C(O)C(=O)N(c2nnc(SCc3ccccc3Cl)s2)C1c1ccccc1O)c1cc2ccccc2o1 (stereo unspecified),Activity,[1],Active
same,MIC50,[2],≥ 50 µM
same,MIC90,[2],≥ 50 µM
same,CC50 at 24 h,[3],> 100 µM
same,HC50 at 1 h,[4],> 200 µM
same,MBC,[5],25 µM
same,MBC,[6],25 µM
same,MBC,[7],100 µM
same,MBC,[8],100 µM
same,Activity,[9],Active
same,Activity,[10],Active
same,inhibition (INH),[11],100%
same,growth inhibition (GI),[12],Active
same,growth inhibition (GI),[13],Active
same,Activity,[14],inactive
same,Activity,[15],inactive
same,fractional inhibitory concentration index (FICI),[16],<=0.5
same,log(activity),[17],4.5
same,log(activity),[18],3
same,log(activity),[19],3
same,MIC,[20],12.5 µM
same,inhibition,[21],Active
same,Activity,[22],<50%
same,Activity,[23],>70%
same,log(activity),[24],3
same,Activity,[25],Active
same,Activity,[26],Active
same,Activity,[27],Active
same,Activity,[28],Active
same,fold change (FC),[29],16
same,fold change (FC),[30],16
same,Activity,[31],inactive
same,Kd,[32],44.1 µM
same,Activity,[33],inactive
same,log(activity),[34],2
same,log(activity),[35],1
same,log(activity),[36],3.5
same,Activity,[37],Non-Toxic
same,Activity,[38],Non-Toxic
same,Activity,[39],Non-Toxic
same,MIC,[40],12.5 µM
